Assays:
H. pylori = assay: Antimicrobial activity against H. pylori, MIC by agar dilution method; assay type: cell-based; settings: Helicobacter pylori
M2 = biological target: T1, M2 (Homo sapiens, UniProt P08172); assay: GPCR Calcium Flux assay (FLIPR tetra, Eurofins), M2; assay type: cell-based
T1 sequence (P08172 1-466): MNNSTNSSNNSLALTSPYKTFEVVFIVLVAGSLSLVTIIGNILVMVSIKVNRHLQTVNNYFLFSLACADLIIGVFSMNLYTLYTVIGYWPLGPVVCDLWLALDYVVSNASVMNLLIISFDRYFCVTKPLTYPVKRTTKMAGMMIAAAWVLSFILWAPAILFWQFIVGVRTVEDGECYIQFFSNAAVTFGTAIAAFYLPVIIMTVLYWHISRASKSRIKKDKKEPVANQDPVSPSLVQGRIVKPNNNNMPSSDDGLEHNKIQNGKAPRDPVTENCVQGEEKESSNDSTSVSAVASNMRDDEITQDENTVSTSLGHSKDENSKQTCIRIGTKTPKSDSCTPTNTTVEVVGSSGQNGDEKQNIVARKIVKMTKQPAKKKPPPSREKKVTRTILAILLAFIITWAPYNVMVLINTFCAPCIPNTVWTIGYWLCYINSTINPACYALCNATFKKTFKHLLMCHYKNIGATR
Method: In order to confirm whether the compounds prepared in the above Examples act as an agonist or antagonist against GPCR Target, Calcium Flux assay was performed in an assay plate in which the compounds prepared in the Examples, vehicle controls, and reference compounds were added, using a Fluorometric imaging plate reader (FLIPR tetra) equipment.
Calcium Flux assay was evaluated by entrusting the GPCR profiler assay in Safety panel assays with Eurofins. By using the Fluo-8AM calcium dye, excitation was measured at a wavelength in the range of 470 to 495 nm and Emission was measured at a wavelength in the range of 515-575 nm. GPCR Assay Buffer for Calcium Flux assay was prepared by adding 20 mM of HEPES and 2.5 mM of Probenecid to Hanks Balanced Salt Solution (HBSS) to have pH 7.4. The Compounds of Examples for evaluation of the GPCR were diluted with DMSO at a concentration of 10 mM to make a stock and then prepared by diluting in the GPCR Assay Buffer at the concentration equivalent to three times the final concentration. First, for the evaluation of GPCRs, the inhibitory activity of the compounds of the Examples was evaluated at a single concentration of 10 uM, and then the respective selected targets were four fold-diluted from 10 uM to the low side to calculate 50% inhibitory concentration (IC50), prepared at the total 8 concentrations of 10, 2.5, 0.62, 0.15, 0.04, 0.01, 0.0024, 0.0006 uM, and Calcium Flux assay for GPCR was conducted. In order to evaluate the agonist and antagonist, % inhibition rate against GPCR activity before and after treatment of the compounds and the inhibitory activity of the compounds of the Examples were determined.
As a result, when the efficacy of […] and acetylcholine of the compounds prepared in the Examples was 100%, the inhibition rate (%) at a single concentration of 10 uM was evaluated and shown in Table 8.

CNCc1cn(S(=O)(=O)c2cccc(F)c2)c(-c2c(F)cc(F)cc2F)c1OC.Cl [Example 22, 1-(1-((3-fluorophenyl)sulfonyl)-4-methoxy-5-(2,4,6-trifluorophenyl)-1H-pyrrol-3-yl)-N-methylmethanamine hydrochloride]
MIC (H. pylori; strain 45 (HPKTCC B0004)): 75 µg/mL | MIC (H. pylori; strain 51 (HPKTCC B0006)): 75 µg/mL | MIC (H. pylori; strain 52 (HPKTCC B0007)): 75 µg/mL | MIC (H. pylori; strain 92-33-1 (HPKTCC B0182)): 75 µg/mL | MIC (H. pylori; strain 92-82-1 (HPKTCC B0233)): 75 µg/mL | MIC (H. pylori; strain 92-157 (HPKTCC B0152)): 75 µg/mL | MIC (H. pylori; strain 118 (HPKTCC B0017)): 75 µg/mL | MIC (H. pylori; strain 126 (HPKTCC B0020)): 75 µg/mL | MIC (H. pylori; strain 127 (HPKTCC B0021)): 75 µg/mL | MIC (H. pylori; strain 133 (HPKTCC B0023)): 75 µg/mL | MIC (H. pylori; strain 134 (HPKTCC B0024)): 75 µg/mL | MIC (H. pylori; strain 138 (HPKTCC B0026)): 75 µg/mL | MIC (H. pylori; strain 156 (HPKTCC B0035)): 75 µg/mL | MIC (H. pylori; strain 159 (HPKTCC B0037)): 75 µg/mL | MIC (H. pylori; strain 164 (HPKTCC B0040)): 75 µg/mL | MIC (H. pylori; strain 183 (HPKTCC B0047)): 75 µg/mL | MIC (H. pylori; strain 193 (HPKTCC B0051)): 75 µg/mL | MIC (H. pylori; strain 198 (HPKTCC B0055)): 75 µg/mL | MIC (H. pylori; strain 205 (HPKTCC B0058)): 75 µg/mL | MIC (H. pylori; strain 210 (HPKTCC B0061)): 75 µg/mL | MIC (H. pylori; strain 221 (HPKTCC B0068)): 75 µg/mL | MIC (H. pylori; strain 228 (HPKTCC B0071)): 75 µg/mL | MIC (H. pylori; strain 235 (HPKTCC B0074)): 75 µg/mL | MIC (H. pylori; strain 236 (HPKTCC B0075)): 75 µg/mL | MIC (H. pylori; strain 302 (HPKTCC B0088)): 75 µg/mL | MIC (H. pylori; strain 26695 (HPKTCC B0100)): 75 µg/mL | MIC (H. pylori; strain 26695 CHGKG (HPKTCC B3412)): 150 µg/mL | MIC (H. pylori; strain CH24 (HPKTCC B0508)): 75 µg/mL | MIC (H. pylori; strain CH94 (HPKTCC B0582)): 75 µg/mL | MIC (H. pylori; strain CH173 (HPKTCC B0494)): 75 µg/mL | MIC (H. pylori; strain CH175 (HPKTCC B0496)): 75 µg/mL | MIC (H. pylori; strain CH189 (HPKTCC B0498)): 75 µg/mL | MIC (H. pylori; strain CH192 (HPKTCC B0500)): 75 µg/mL | MIC (H. pylori; strain CH272 (HPKTCC B0516)): 75 µg/mL | MIC (H. pylori; strain CH369 (HPKTCC B0522)): 75 µg/mL | MIC (H. pylori; strain CH381 (HPKTCC B0524)): 75 µg/mL | MIC (H. pylori; strain CH498 (HPKTCC B0536)): 75 µg/mL | MIC (H. pylori; strain CH502 (HPKTCC B0537)): 75 µg/mL | MIC (H. pylori; strain CH523 (HPKTCC B0541)): 75 µg/mL | MIC (H. pylori; strain CH541 (HPKTCC B0548)): 75 µg/mL | MIC (H. pylori; strain CH588 (HPKTCC B0556)): 75 µg/mL | MIC (H. pylori; strain CH609 (HPKTCC B0558)): 75 µg/mL | MIC (H. pylori; strain CH612 (HPKTCC B0559)): 75 µg/mL | MIC (H. pylori; strain CH631 (HPKTCC B0560)): 75 µg/mL | MIC (H. pylori; strain CH635 (HPKTCC B0562)): 75 µg/mL | MIC (H. pylori; strain CH674 (HPKTCC B0564)): 75 µg/mL | MIC (H. pylori; strain CH1056 (HPKTCC B0487)): 75 µg/mL | MIC (H. pylori; strain CJH7 (HPKTCC B0606)): 75 µg/mL | MIC (H. pylori; strain CJH8 (HPKTCC B0608)): 75 µg/mL | MIC (H. pylori; strain CJH9 (HPKTCC B0610)): 75 µg/mL | MIC (H. pylori; strain CJH10 (HPKTCC B0587)): 75 µg/mL | MIC (H. pylori; strain CJH13 (HPKTCC B0589)): 75 µg/mL | MIC (H. pylori; strain CJH31 (HPKTCC B0594)): 75 µg/mL | MIC (H. pylori; strain CJH33 (HPKTCC B0595)): 75 µg/mL | MIC (H. pylori; strain CJH43 (HPKTCC B0596)): 75 µg/mL | MIC (H. pylori; strain CJH50 (HPKTCC B0599)): 75 µg/mL | MIC (H. pylori; strain G88001 (HPKTCC B0722)): 75 µg/mL | MIC (H. pylori; strain G88007 (HPKTCC B0725)): 75 µg/mL | MIC (H. pylori; strain J99 (HPKTCC B0748)): 75 µg/mL | MIC (H. pylori; strain SS1-P-4′ (HPKTCC B3392)): 75 µg/mL | IC50 (M2; 8 concentrations 10 to 0.0006 uM, read-out: 50% inhibitory concentration (IC50) M2): 1000 nM | inhibition at 10 µM (M2; single concentration of 10 uM, read-out: inhibition rate (%) M2): 100%

— US10100010B1, “4-methoxy pyrrole derivatives or salts thereof and pharmaceutical composition comprising the same” (Daewoong Pharmaceutical Co., Ltd., priority 2015, dated 2018)
